Biological target: T1, c-MYC (Homo sapiens, UniProt P01106)
T1 construct: human recombinant c-MYC protein (Abcam ab169901)
Assay: microscale thermophoresis with RED-NHS labelled recombinant c-MYC
Assay type: binding

T1 sequence (P01106 16-454): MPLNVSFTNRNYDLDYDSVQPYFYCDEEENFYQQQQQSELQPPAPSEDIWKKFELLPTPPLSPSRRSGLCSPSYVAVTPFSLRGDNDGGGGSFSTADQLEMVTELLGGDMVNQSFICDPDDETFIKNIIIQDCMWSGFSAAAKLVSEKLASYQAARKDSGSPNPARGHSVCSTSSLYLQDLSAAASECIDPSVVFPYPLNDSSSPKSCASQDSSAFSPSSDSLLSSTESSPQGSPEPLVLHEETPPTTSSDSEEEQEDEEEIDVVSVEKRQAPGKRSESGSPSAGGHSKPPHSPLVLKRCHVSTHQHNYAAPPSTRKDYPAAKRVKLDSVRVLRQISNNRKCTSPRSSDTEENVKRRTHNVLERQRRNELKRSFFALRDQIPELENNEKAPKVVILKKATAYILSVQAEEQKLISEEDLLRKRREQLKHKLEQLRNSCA

Kd: 1080 ± 100 nM
SMILES: Cc1ccc(NC(=O)N2Cc3[nH]cnc3C[C@H]2c2nc(-c3ccc4ccccc4c3)no2)cc1 [ZINC15675948, (6S)-N-(4-methylphenyl)-6-(3-naphthalen-2-yl-1,2,4-oxadiazol-5-yl)-3,4,6,7-tetrahydroimidazo [4,5-c]pyridine-5-carboxamide]
